{"source": "patent US20240246942A1", "about": "“KINASE INHIBITORS FOR THE TREATMENT OF NEURODEGENERATIVE DISEASES” (priority 2020, published 2024)", "test_in_all_cases": "biochemical", "key": {"[1]": {"target": "T1, panel of 374 wild-type kinases (Homo sapiens, UniProt P11362)", "T1 construct": "purchased Reaction Biology Corporation", "T1 sequence (P11362 22-822)": "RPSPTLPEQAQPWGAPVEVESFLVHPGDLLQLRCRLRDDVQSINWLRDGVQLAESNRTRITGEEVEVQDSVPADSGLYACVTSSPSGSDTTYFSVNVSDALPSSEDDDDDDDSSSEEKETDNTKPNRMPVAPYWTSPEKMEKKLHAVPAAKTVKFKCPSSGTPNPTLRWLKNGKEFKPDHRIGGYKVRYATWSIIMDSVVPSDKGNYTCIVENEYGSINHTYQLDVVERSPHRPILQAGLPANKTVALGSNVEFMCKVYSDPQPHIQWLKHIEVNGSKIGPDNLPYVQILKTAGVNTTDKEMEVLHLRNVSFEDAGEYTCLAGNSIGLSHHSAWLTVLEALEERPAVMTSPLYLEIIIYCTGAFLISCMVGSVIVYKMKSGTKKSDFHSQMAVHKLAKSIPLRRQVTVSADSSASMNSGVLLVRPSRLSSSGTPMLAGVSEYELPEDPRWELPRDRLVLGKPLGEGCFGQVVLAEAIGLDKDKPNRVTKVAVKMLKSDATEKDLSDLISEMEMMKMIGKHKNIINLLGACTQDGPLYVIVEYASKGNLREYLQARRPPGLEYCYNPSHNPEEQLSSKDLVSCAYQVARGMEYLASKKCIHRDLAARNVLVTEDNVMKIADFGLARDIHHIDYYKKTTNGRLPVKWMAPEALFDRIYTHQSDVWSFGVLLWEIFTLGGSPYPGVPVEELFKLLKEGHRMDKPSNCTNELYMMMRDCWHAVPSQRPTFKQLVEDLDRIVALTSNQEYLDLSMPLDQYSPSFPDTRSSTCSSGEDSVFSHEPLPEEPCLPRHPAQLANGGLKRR", "settings": "read-out: % Enzyme Activity (relative to DMSO controls), FGFR1"}, "[2]": {"target": "T2, panel of 374 wild-type kinases (Homo sapiens, UniProt P45984)", "T2 construct": "purchased Reaction Biology Corporation", "T2 sequence (P45984 whole entry)": "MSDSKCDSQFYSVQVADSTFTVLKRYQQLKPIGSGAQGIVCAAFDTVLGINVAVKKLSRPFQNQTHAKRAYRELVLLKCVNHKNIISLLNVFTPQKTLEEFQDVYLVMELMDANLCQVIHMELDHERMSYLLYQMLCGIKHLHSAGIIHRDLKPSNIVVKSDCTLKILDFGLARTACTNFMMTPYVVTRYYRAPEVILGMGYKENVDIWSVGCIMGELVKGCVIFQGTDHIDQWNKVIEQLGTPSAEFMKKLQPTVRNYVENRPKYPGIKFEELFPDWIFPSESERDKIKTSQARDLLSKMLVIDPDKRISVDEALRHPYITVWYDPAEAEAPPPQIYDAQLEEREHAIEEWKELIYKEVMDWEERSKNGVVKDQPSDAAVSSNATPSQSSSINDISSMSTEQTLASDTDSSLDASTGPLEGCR", "settings": "JNK2, read-out: % Enzyme Activity (relative to DMSO controls)"}, "[3]": {"target": "T3, panel of 374 wild-type kinases (Homo sapiens, UniProt Q12866)", "T3 construct": "purchased Reaction Biology Corporation", "T3 sequence (Q12866 21-999)": "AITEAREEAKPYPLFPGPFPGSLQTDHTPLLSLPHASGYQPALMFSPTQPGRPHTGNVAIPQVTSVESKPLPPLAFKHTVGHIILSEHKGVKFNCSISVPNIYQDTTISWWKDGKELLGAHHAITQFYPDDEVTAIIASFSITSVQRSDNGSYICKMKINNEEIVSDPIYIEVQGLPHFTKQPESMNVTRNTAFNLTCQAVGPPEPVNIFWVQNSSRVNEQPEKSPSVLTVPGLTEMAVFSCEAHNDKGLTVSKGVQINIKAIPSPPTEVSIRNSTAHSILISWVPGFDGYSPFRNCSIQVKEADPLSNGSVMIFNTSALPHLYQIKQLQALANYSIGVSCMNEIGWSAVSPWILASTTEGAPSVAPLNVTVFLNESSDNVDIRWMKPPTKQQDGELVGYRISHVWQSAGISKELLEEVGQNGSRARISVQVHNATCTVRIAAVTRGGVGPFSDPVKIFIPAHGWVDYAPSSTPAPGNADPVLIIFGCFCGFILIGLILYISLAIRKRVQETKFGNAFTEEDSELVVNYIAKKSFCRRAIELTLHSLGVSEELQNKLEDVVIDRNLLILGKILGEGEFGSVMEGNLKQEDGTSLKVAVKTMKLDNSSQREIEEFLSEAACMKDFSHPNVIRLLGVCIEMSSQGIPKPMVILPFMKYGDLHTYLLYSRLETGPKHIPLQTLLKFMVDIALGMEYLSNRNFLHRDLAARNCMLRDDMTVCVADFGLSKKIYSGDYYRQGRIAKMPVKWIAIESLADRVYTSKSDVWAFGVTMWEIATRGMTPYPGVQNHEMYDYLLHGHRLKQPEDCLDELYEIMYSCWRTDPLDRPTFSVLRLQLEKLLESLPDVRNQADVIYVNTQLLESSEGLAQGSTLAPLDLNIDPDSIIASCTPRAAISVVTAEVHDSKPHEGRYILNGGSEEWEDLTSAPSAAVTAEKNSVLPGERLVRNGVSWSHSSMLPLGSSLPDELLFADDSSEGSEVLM", "settings": "read-out: % Enzyme Activity (relative to DMSO controls), c-MER"}, "[4]": {"target": "T4, panel of 374 wild-type kinases (Homo sapiens, UniProt Q96RG2)", "T4 construct": "purchased Reaction Biology Corporation", "T4 sequence (Q96RG2 whole entry)": "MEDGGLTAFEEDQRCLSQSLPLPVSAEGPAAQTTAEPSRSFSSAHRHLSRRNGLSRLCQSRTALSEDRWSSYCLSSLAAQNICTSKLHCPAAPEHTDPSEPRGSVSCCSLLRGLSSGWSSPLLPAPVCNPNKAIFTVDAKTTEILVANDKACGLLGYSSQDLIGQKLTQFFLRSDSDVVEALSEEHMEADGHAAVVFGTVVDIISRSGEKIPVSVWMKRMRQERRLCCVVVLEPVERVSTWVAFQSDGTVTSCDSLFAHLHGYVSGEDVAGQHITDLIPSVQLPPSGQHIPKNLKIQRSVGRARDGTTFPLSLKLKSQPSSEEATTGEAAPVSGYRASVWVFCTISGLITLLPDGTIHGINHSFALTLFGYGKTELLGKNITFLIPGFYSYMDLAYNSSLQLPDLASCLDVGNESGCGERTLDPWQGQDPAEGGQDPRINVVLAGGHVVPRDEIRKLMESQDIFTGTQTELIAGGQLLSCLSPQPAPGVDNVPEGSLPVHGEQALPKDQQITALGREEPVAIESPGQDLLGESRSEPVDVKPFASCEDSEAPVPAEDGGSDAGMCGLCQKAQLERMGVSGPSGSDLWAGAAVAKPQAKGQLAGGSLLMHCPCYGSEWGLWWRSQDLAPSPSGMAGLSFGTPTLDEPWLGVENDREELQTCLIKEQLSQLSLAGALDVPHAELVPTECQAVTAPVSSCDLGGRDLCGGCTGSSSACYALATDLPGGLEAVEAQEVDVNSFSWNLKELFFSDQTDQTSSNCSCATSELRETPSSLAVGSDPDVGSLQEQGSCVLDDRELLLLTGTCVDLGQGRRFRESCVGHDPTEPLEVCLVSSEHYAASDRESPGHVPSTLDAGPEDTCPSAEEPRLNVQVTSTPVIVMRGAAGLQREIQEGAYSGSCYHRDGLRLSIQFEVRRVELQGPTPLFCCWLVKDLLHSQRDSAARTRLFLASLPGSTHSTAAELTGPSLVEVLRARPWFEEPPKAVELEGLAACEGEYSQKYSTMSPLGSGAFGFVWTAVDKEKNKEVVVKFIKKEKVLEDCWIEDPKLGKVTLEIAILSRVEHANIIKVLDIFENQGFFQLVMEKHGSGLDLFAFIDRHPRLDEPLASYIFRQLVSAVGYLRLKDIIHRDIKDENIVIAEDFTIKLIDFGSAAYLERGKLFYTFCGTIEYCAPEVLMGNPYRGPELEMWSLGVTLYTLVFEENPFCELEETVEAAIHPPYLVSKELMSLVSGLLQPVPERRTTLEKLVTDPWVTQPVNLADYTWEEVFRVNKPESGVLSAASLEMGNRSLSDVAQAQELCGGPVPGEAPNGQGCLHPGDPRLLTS", "settings": "read-out: % Enzyme Activity (relative to DMSO controls), kinase PASK"}, "[5]": {"target": "T5, panel of 374 wild-type kinases (Homo sapiens, UniProt Q9UPE1)", "T5 construct": "purchased Reaction Biology Corporation", "T5 sequence (Q9UPE1 whole entry)": "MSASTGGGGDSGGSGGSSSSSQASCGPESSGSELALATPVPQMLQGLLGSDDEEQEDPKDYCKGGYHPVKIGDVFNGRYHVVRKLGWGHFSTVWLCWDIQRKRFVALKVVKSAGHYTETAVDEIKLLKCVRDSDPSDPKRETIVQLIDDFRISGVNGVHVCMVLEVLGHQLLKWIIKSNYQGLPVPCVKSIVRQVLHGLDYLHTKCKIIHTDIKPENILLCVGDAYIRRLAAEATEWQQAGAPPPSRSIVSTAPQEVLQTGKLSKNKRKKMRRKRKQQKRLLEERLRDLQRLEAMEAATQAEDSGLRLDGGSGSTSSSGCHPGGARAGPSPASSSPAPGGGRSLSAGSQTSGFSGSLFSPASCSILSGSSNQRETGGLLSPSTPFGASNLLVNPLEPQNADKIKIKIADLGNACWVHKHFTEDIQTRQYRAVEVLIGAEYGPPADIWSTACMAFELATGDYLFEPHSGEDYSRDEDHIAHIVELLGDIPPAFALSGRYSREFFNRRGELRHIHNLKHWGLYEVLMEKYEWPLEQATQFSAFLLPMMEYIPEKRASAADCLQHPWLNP", "settings": "read-out: % Enzyme Activity (relative to DMSO controls), MSSK1/STK23"}, "[6]": {"target": "T6, panel of 374 wild-type kinases (Homo sapiens, UniProt Q9UPZ9)", "T6 construct": "purchased Reaction Biology Corporation", "T6 sequence (Q9UPZ9 1-632)": "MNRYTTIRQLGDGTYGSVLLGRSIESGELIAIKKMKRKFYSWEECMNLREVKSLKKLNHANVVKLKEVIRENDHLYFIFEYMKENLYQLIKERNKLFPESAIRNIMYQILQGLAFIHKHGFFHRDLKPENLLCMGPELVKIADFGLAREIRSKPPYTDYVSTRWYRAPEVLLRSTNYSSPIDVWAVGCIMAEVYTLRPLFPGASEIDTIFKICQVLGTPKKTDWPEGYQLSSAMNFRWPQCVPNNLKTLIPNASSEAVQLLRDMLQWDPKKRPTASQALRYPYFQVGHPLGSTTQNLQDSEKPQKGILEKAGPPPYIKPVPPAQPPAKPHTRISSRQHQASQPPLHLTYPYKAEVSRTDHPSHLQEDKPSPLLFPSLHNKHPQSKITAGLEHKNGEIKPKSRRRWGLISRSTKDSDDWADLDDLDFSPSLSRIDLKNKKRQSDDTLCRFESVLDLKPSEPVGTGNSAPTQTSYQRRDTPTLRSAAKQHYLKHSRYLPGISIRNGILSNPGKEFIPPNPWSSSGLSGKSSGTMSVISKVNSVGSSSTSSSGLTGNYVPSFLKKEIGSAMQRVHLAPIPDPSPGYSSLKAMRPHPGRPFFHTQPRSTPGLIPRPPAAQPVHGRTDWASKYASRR", "settings": "read-out: % Enzyme Activity (relative to DMSO controls), LCK2/ICK"}}, "data": [{"compound": "O=C(Nc1cnn(-c2csc(C(=O)NC3COC3)c2)c1)Nc1ccccc1Cl", "note": "[Compound 17, 4-(4-(3-(2-chlorophenyl)ureido)-1H-pyrazol-1-yl)-N-(oxetan-3-yl)thiophene-2-carboxamide]", "values": [{"measurement": "remaining activity at 5 µM", "setting": "[1]", "result": 98.5, "unit": "%"}, {"measurement": "remaining activity at 5 µM", "setting": "[2]", "result": 34.1, "unit": "%"}, {"measurement": "remaining activity at 5 µM", "setting": "[3]", "result": 92.7, "unit": "%"}, {"measurement": "remaining activity at 5 µM", "setting": "[4]", "result": 96.3, "unit": "%"}, {"measurement": "remaining activity at 5 µM", "setting": "[5]", "result": 91.9, "unit": "%"}, {"measurement": "remaining activity at 5 µM", "setting": "[6]", "result": 112, "unit": "%"}]}, {"compound": "Cc1sc(C(=O)NC2COC2)cc1-n1cc(NC(=O)Nc2c(F)cccc2Cl)cn1", "note": "[Compound 27, 4-(4-(3-(2-chloro-6-fluorophenyl)ureido)-1H-pyrazol-1-yl)-5-methyl-N-(oxetan-3-yl)thiophene-2-carboxamide]", "values": [{"measurement": "remaining activity at 10 µM", "setting": "[1]; 10 uM", "result": 114, "unit": "%"}, {"measurement": "remaining activity at 10 µM", "setting": "[2]; 10 uM", "result": 51.9, "unit": "%"}, {"measurement": "remaining activity at 10 µM", "setting": "[3]; 10 uM", "result": 103, "unit": "%"}, {"measurement": "remaining activity at 10 µM", "setting": "[4]; 10 uM", "result": 96.1, "unit": "%"}, {"measurement": "remaining activity at 10 µM", "setting": "[5]; 10 uM", "result": 98.9, "unit": "%"}, {"measurement": "remaining activity at 10 µM", "setting": "[6]; 10 uM", "result": 100, "unit": "%"}]}, {"compound": "O=C(Nc1cnn(-c2csc(C(=O)NC3COC3)c2)c1)Nc1c(F)cccc1Cl", "note": "[Compound 25, 4-(4-(3-(2-chloro-6-fluorophenyl)ureido)-1H-pyrazol-1-yl)-N-(oxetan-3-yl)thiophene-2-carboxamide]", "values": [{"measurement": "remaining activity at 5 µM", "setting": "[1]", "result": 93.2, "unit": "%"}, {"measurement": "remaining activity at 5 µM", "setting": "[2]", "result": 22.7, "unit": "%"}, {"measurement": "remaining activity at 5 µM", "setting": "[3]", "result": 77.1, "unit": "%"}, {"measurement": "remaining activity at 5 µM", "setting": "[4]", "result": 99.7, "unit": "%"}, {"measurement": "remaining activity at 5 µM", "setting": "[5]", "result": 89.8, "unit": "%"}, {"measurement": "remaining activity at 5 µM", "setting": "[6]", "result": 101, "unit": "%"}]}]}
